{
  "source": "patent US10222368B2",
  "about": "(priority 2012, dated 2019)",
  "origin": "cited, not measured here",
  "target": "KAPPA opioid receptor (Homo sapiens, UniProt P41145)",
  "sequence (P41145 whole entry)": "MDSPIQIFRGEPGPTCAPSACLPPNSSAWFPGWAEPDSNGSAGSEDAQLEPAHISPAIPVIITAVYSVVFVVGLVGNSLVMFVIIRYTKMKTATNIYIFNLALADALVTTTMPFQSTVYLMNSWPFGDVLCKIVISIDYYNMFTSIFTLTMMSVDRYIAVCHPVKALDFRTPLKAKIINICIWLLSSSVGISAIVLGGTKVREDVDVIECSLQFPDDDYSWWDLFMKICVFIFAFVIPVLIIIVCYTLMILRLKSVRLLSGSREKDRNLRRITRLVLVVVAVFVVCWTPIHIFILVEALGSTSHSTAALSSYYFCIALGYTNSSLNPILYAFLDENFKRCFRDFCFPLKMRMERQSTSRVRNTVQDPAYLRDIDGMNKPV",
  "conditions": "cited from earlier work",
  "data": [
    {"smiles": "Oc1ccc2c3c1O[C@H]1c4[nH]c5c(c4C[C@@]4(O)C(C2)N(CC2CC2)CC[C@]314)C[C@@]1(O)[C@H]2Cc3ccc(O)c4c3[C@@]1(CCN2CC1CC1)[C@H]5O4", "note": "[Binaltrophimine]", "values": [
      {"measurement": "Opioid receptor activity and relative potency, KAPPA", "value": "− −"}
    ]}
  ]
}
